The values below come from patent US20250034600A1, “ONIUM SALT COMPOSITIONS, METHODS FOR PRODUCING CELLULOSE HYDROLYSATES, ALCOHOLS AND/OR ORGANIC ACIDS IN THE PRESENCE OF ONIUM SALT COMPOSITIONS” (KOEI CHEMICAL COMPANY, LIMITED, priority 2023, published 2025).

One assay relates to dry yeast. Nature of the assay: Fermentation of glucose with dry yeast to ethanol in the presence of the onium salt. Type of assay: cell-based. The following applies: 0.20 g onium salt, 0.5 g glucose, 9.6 g water, 0.05 g dry yeast, stand overnight; ethanol quantified by GC. On the procedure: (§1) 0.20 g of 1,3-bis(3-methoxypropyl)imidazolium acetate, 0.5 g of glucose (β-D-glucose (including α-D-glucose), produced by Tokyo Chemical Industry Co., Ltd.), and 9.6 g of ultrapure water were placed in a sample tube. The resulting mixture was stirred until the glucose was completely dissolved. After the glucose had been completely dissolved, 0.05 g of dry yeast was added and the resulting mixture was allowed to stand overnight. After filtering off the insoluble matter, the amount of ethanol produced was quantified by GC (gas chromatography) to calculate the ethanol yield.
as §1, with “1,3-bis(methoxyethoxypropyl)imidazolium acetate ([(MeOEtOPr)2Im][AcO]),” for “1,3-bis(3-methoxypropyl)imidazolium acetate,”, “added. The” for “added and the”
0.20 g of 1,3-bis(ethoxypropyl)imidazolium acetate ([(EtOPr)2Im][AcO]), 0.5 g of glucose (β-D-glucose (including α-D-glucose), produced by Tokyo Chemical Industry Co., Ltd.), and 9.6 g of ultrapure water were placed in a sample tube. The resulting mixture was stirred until the glucose was completely dissolved. After the glucose had been completely dissolved, 0.05 g of dry yeast was added and the resulting mixture was allowed to stand overnight. After filtering off the insoluble matter, the amount of ethanol produced was quantified by GC (gas chromatography) to calculate the ethanol yield.
The same procedure as in Example 2 was repeated except that 1-ethyl-3-methylimidazolium acetate was used in place of the 1,3-bis(3-methoxypropyl)imidazolium acetate used in Example 2.

Assay [1] deals with yeast (Saccharomyces cerevisiae). The experiment in a line: Antibacterial test (minimum inhibitory concentration, MIC value) against yeast. The conditions noted are these: lower MIC = greater inhibition. Type of assay: cell-based. On the procedure: An antibacterial test (measurement of minimum inhibitory concentration (MIC value)) of 1,3-bis(3-methoxypropyl)imidazolium acetate and 1-ethyl-3-methylimidazolium acetate against yeast (Saccharomyces cerevisiae) was carried out. A lower MIC value indicates a greater degree of inhibition of enzymatic and/or microbial activity.

Assay [2] relates to cellulase (produced by Sigma). Nature of the assay: Enzymatic hydrolysis of microcrystalline cellulose with cellulase in the presence of the onium salt. Type of assay: biochemical. The conditions noted are these: 1.00 g microcrystalline cellulose in 5.00 g onium salt; 95.0 g water, 10 μL cellulase, 4 days; calculated from cellulose residue. As to the method:
5.00 g of 1,3-bis(3-methoxypropyl)imidazolium acetate was placed in a flask and maintained at 50° C. 1.00 g of microcrystalline cellulose (Avicel (registered trademark) PH-101) was added at 50° C., and the resulting mixture was stirred until visual observation confirmed that microcrystalline cellulose had been completely dissolved. 95.0 g of ultrapure water and 10 μL of cellulase (produced by Sigma) were added, and the resulting mixture was stirred for 4 days. The remaining cellulose residue was recovered by filtration, and the glucose conversion rate was calculated.
The same procedure as in Example 1 was repeated except that 1-ethyl-3-methylimidazolium acetate was used in place of the 1,3-bis(3-methoxypropyl)imidazolium acetate used in Example 1.

Assay [3] deals with cellulase (produced by Sigma) and dry yeast. Nature of the assay: Cellulose dissolution, cellulase hydrolysis and dry yeast fermentation to ethanol in one pot in the presence of the onium salt. Type of assay: cell-based. The conditions noted are these: 2.00 g onium salt, 0.50 g microcrystalline cellulose, 80° C. 3 h; 38.0 g water, 20 μL cellulase, 50° C. 10 h; 0.50 g dry yeast, 30° C. 7 h; GC. On the procedure: 2.00 g of 1,3-bis(3-methoxypropyl)imidazolium acetate was placed in a sample tube, and 0.50 g of microcrystalline cellulose (Avicel (registered trademark) PH-101) was added. The resulting mixture was heated and stirred at 80° C. for 3 hours. After confirming by visual observation that the microcrystalline cellulose had been […], 38.0 g of ultrapure water and 20 μL of cellulase (produced by Sigma) were added. The resulting mixture was stirred at 50° C. for 10 hours. 0.50 g of dry yeast was then added and the resulting mixture was gently stirred at 30° C. After 7 hours, the insoluble matter was filtered off, and the amount of ethanol produced was quantified by GC (gas chromatography) to calculate the ethanol yield.
The same procedure as in Example 5 was repeated, except that 1-ethyl-3-methylimidazolium acetate was used in place of the 1,3-bis(3-methoxypropyl)imidazolium acetate used in Example 5.
The same procedure as in Example 5 was repeated, except that the 1,3-bis(3-methoxypropyl)imidazolium acetate used in Example 5 was not added and 2.00 g of ultrapure water was used in place of 2.00 g of 1,3-bis(3-methoxypropyl)imidazolium acetate.

As for `CC(=O)[O-].COCCCn1cc[n+](CCCOC)c1` [[MeOPr]2Im] [AcO], 1,3-bis(3-methoxypropyl)imidazolium acetate], the values for the Ethanol yield (in the assay on dry yeast; in assay [3]) were 66.64% and 51.5, respectively. The same compound came in with an MIC value in assay [1] of 5%. Besides, in assay [2], the Glucose conversion rate is recorded as 73%.
For the compound `CC(=O)[O-].CCOCCCn1cc[n+](CCCOCC)c1` [[EtOPr]2Im] [AcO], 1,3-bis(ethoxypropyl)imidazolium acetate], the Ethanol yield in the assay with dry yeast was determined as 46.38%.
For `CC(=O)[O-].COCCOCCCn1cc[n+](CCCOCCOC)c1` [[MeOEtOPr]2Im] [AcO], 1,3-bis(methoxyethoxypropyl)imidazolium acetate], in the assay with dry yeast, the Ethanol yield is given as 53.77%.
Consider `CC(=O)[O-].CCn1cc[n+](C)c1` [1-Ethyl-3-methylimidazolium acetate, 1-ethyl-3-methylimidazolium acetate, reference compound], for which the Ethanol yield in the assay with dry yeast worked out at 14.2%; in assay [3], 16.0. In assay [1], this compound came in with an MIC value of 0.5%. Moreover, the Glucose conversion rate in assay [2] is reported as 8%.
